Twelve compounds from patent US9926282B2, “Phthalazinones and isoquinolinones as rock inhibitors” (BRISTOL-MYERS SQUIBB COMPANY, priority 2013, dated 2018) can be followed below.

Assay [1] concerns the target ROCK1 (Homo sapiens (Human), UniProt Q13464). Put plainly: ROCK assay (LABCHIP peptide phosphorylation), ROCK1. The assay is classed as biochemical. Conditions: 5 μM ATP, 1.5 μM peptide substrate; read-out: ROCK1 IC50.
Assay [2] has as its target ROCK2 (Homo sapiens (Human), UniProt O75116). Briefly: ROCK assay (LABCHIP peptide phosphorylation), ROCK2. The assay is classed as biochemical. Conditions: 5 μM ATP, 1.5 μM peptide substrate.

Molecules are shown by their SMILES.

ROCK1, sequence (Q13464 whole entry, species assumed): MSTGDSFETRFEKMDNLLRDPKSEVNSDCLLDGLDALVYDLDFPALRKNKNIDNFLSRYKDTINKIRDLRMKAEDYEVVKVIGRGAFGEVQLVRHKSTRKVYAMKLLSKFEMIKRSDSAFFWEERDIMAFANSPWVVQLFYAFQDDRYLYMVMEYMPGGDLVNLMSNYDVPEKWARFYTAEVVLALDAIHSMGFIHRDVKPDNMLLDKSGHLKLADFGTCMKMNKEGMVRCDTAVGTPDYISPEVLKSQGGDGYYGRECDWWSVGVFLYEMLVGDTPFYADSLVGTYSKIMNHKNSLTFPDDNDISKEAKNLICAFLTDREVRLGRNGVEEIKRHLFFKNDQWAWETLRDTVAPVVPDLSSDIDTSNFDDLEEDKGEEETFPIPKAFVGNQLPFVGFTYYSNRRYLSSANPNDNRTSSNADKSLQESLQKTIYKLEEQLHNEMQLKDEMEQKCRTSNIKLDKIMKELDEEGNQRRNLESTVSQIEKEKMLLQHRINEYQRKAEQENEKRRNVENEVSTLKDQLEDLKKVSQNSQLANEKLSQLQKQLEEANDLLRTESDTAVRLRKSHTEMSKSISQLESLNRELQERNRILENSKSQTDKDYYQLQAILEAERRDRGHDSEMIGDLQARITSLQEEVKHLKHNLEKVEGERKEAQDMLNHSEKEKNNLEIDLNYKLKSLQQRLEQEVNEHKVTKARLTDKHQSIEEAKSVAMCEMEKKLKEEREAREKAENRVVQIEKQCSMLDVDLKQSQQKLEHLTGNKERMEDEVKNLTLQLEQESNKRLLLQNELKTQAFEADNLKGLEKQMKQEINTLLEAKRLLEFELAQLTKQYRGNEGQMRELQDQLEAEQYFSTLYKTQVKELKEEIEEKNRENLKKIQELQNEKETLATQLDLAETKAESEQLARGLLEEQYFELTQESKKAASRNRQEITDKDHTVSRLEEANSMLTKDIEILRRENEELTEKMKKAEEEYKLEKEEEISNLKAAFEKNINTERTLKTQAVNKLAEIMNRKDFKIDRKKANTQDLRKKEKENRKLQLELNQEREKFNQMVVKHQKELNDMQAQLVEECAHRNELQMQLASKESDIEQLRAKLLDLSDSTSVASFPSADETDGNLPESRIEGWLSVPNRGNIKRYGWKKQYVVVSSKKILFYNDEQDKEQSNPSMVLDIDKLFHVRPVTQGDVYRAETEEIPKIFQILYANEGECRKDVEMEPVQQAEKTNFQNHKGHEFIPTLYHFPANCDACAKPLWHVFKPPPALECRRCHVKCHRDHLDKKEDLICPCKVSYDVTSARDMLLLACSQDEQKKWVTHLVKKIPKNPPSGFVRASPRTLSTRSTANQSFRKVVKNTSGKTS
ROCK2, sequence (O75116 whole entry, species assumed): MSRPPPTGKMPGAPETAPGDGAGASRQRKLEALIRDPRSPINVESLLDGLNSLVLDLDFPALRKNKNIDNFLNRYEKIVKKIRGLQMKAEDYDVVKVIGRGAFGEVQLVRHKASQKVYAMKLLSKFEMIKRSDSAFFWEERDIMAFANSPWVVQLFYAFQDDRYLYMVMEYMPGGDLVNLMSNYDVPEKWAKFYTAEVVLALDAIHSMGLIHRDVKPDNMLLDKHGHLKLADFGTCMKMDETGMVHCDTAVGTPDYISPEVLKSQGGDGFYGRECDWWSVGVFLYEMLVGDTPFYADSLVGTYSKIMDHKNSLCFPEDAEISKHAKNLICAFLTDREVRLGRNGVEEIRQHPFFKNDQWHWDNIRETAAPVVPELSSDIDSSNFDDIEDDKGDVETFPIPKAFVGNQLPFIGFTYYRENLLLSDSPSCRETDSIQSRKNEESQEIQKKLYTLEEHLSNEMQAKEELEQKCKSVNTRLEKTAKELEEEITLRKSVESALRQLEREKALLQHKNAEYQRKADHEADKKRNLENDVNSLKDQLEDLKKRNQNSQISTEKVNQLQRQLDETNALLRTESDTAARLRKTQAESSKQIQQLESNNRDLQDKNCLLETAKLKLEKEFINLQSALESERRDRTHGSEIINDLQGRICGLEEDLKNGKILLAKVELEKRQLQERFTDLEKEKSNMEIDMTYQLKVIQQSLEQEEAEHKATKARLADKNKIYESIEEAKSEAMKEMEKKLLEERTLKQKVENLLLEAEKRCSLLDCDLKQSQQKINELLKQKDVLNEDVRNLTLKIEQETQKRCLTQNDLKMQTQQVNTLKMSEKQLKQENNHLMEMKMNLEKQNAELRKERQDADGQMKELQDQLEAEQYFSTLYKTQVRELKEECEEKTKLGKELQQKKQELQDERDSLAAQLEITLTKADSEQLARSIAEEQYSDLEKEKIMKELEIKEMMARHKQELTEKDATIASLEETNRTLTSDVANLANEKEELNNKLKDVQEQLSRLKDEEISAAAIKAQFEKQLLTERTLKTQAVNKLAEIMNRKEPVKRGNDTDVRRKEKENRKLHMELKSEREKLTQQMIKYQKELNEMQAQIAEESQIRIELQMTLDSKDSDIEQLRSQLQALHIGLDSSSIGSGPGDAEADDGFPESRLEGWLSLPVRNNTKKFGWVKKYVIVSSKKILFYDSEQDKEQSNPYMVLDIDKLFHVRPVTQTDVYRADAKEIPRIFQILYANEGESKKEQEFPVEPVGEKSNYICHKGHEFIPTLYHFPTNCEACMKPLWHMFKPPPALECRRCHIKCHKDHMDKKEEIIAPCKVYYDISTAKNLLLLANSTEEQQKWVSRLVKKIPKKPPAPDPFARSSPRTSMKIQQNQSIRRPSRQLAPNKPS

As for `Cc1cccc(-n2cnc(C(=O)Nc3ccc(-c4n[nH]c(=O)c5ccccc45)cc3)c2)c1` [Example 195, 1-(3-methylphenyl)-N-[4-(4-oxo-3,4-dihydrophthalazin-1-yl)phenyl]-1H-imidazole-4-carboxamide], the IC50 in assay [1] and in assay [2] was 0.1 to 100 nM each time.

`O=C(Nc1ccc(-c2c[nH]c(=O)c3ccccc23)cc1)c1nc2c(s1)CCCC2` [Example 246, N-(4-(1-Oxo-1,2-dihydroisoquinolin-4-yl)phenyl)-4,5,6,7-tetrahydrobenzo[d]thiazole-2-carboxamide]: the IC50 in assay [1] and in assay [2] was 0.1 to 100 nM throughout.

Take `O=C(Cc1ccc(-c2n[nH]c(=O)c3ccccc23)cc1)N1CCC(c2ccccc2)CC1` [Example 11, 4-{4-[2-oxo-2-(4-phenylpiperidin-1-yl)ethyl]phenyl}-1,2-dihydrophthalazin-1-one]: the IC50 (in general, the concentration that inhibits the measured activity by half) in assay [1] fell in the range of 1000 to 50000 nM; in assay [2] it was 101 to 1000 nM.

For the compound `Cc1csc(C(=O)Nc2ccc(-c3n[nH]c(=O)c4ccccc34)cc2)n1` [Example 50, 4-methyl-N-[4-(4-oxo-3,4-dihydrophthalazin-1-yl)phenyl]-1,3-thiazole-2-carboxamide], the 50% inhibitory concentration (IC50) in assay [1] and in assay [2] was 0.1 to 100 nM throughout.

Take `COc1cc2cc(C(=O)Nc3ccc(-c4n[nH]c(=O)c5ccccc45)cc3)oc2cc1F` [Example 180, 6-fluoro-5-methoxy-N-[4-(4-oxo-3,4-dihydrophthalazin-1-yl)phenyl]-1-benzofuran-2-carboxamide]: the IC50 in assay [1] and in assay [2] was 0.1 to 100 nM throughout.

With `CN(C)C(=O)c1ccc2c(c1)N(C(=O)Cc1ccc(-c3n[nH]c(=O)c4ccccc34)cc1)CC2` [Example 291, N,N-dimethyl-1-{2-[4-(4-oxo-3,4-dihydrophthalazin-1-yl)phenyl]acetyl}-2,3-dihydro-1H-indole-6-carboxamide], the IC50 in assay [1] was 101 to 1000 nM; in assay [2], 0.1 to 100 nM.

`O=C(Nc1ccc(-c2n[nH]c(=O)c3ccccc23)cc1)c1cn2c(n1)CCCC2` [Example 134, N-[4-(4-oxo-3,4-dihydrophthalazin-1-yl)phenyl]-5H,6H,7H,8H-imidazo[1,2-a]pyridine-2-carboxamide]: the results for the IC50 in assay [1] and in assay [2] were 101 to 1000 nM and 0.1 to 100 nM, respectively.

Consider `O=C(Nc1ccc(-c2n[nH]c(=O)c3ccccc23)cc1)c1c[nH]c2ncccc12` [Example 135, N-[4-(4-oxo-3,4-dihydrophthalazin-1-yl)phenyl]-1H-pyrrolo[2,3-b]pyridine-3-carboxamide], for which the 50% inhibitory concentration (IC50) in assay [1] lay in the range of 101 to 1000 nM; in assay [2] it was 0.1 to 100 nM.

In the case of `Cn1nc(C(=O)Nc2ccc(-c3n[nH]c(=O)c4ccccc34)c(CO)c2)c2ccccc21` [Example 363, N-(3-(Hydroxymethyl)-4-(4-oxo-3,4-dihydrophthalazin-1-yl)phenyl)-1-methyl-1H-indazole-3-carboxamide], the concentration for half-maximal inhibition (IC50) in assay [1] was in the range of 1000 to 50000 nM; in assay [2] it was 0.1 to 100 nM.

In the case of `Cc1cc(NC(=O)c2cnn(-c3ccccc3)c2C)ccc1-c1n[nH]c(=O)c2ccccc12` [Example 394, 5-Methyl-N-(3-methyl-4-(4-oxo-3,4-dihydrophthalazin-1-yl)phenyl)-1-phenyl-1H-pyrazole-4-carboxamide], the concentration for half-maximal inhibition (IC50) in assay [1] fell in the range of 101 to 1000 nM; in assay [2], 0.1 to 100 nM.

In the case of `COc1ccc2c(=O)[nH]cc(-c3ccc(NC(=O)N4CCc5ccccc54)cc3)c2c1` [Example 266, N-(4-(6-Methoxy-1-oxo-1,2-dihydroisoquinolin-4-yl)phenyl)indoline-1-carboxamide], the IC50 in assay [1] and in assay [2] was 0.1 to 100 nM throughout.

`COc1cccc2[nH]cc(C(=O)Nc3ccc(-c4n[nH]c(=O)c5ccccc45)cc3)c12` [Example 117, 4-methoxy-N-[4-(4-oxo-3,4-dihydrophthalazin-1-yl)phenyl]-1H-indole-3-carboxamide]: the IC50 in assay [1] and in assay [2] was 0.1 to 100 nM in each case.
